Assay results from ChEMBL document CHEMBL1629429, “SAR studies of gymnasterkoreayne derivatives with cancer chemopreventive activities” (Bioorg Med Chem Lett, 2010).

Key:
[1] = Cytotoxicity against mouse Hepa-1c1c7 cells; type: cell-based
[2] = Chemoprevention index, ratio of IC50 for mouse Hepa-1c1c7 cells to drug level required to double specific NADPH:quinone reductase activity in mouse Hepa-1c1c7 cells; type: functional

SMILES	IC50 [1]	Ratio IC50 [2]
CCC/C=C/C(O)C#CC#C[C@@H](O)[C@H](C)O (some centres undefined)	422 µM	14.77
C=CCCCCC/C=C\C(O)C#CC#C[C@H](O)[C@H](C)O (some centres undefined)	252 µM	18.39
CCCCCCCCCC(O)CCCC[C@@H](O)[C@H](C)O (some centres undefined)	> 500 µM	–
CCCCCC(O)C#CC#C[C@@H](O)[C@H](C)O (relative stereo)	> 500 µM	>31.66
CCCCCCC(O)C#CC#C[C@@H](O)[C@H](C)O (relative stereo)	223 µM	25.66
CC(C)=CC(O)C#CC#C[C@@H](O)[C@H](C)O (relative stereo)	406 µM	17.02
C[C@H](O)[C@H](O)C#CC#CC(O)C1CCCCC1 (relative stereo)	> 500 µM	>3.8
C[C@H](O)[C@H](O)C#CC#CC(O)c1ccccc1 (relative stereo)	> 500 µM	>13.57
C[C@H](O)[C@H](O)C#CC#CC(O)Cc1ccccc1 (relative stereo)	> 500 µM	>8.64
CCCCCCCCCC(O)C#CC#C[C@H](O)[C@H](C)O (relative stereo)	64.2 µM	30.13
CCCCCC(O)C#CC#C[C@H](O)[C@H](C)O (relative stereo)	> 500 µM	>38.6
C=CCCCCC/C=C\C(O)C#CC#C[C@@H](O)[C@H](C)O (relative stereo)	88.6 µM	10.51
CCCCCCCCCC(O)C#CC#C[C@@H](O)[C@H](C)O (relative stereo)	39.8 µM	7.44
C=CC(O)C#CC#C[C@@H](O)[C@H](C)O (relative stereo)	177 µM	1.12
C=CCCCCC/C=C\[C@H](O)C#CC#CC1OC1C (some centres undefined) [GYMNASTERKOREAYNE B]	70.6 µM	9.57
